Active and inactive are the calls of the source. A value given as a limit tells only on which side of the number the result lay.

As usually defined, the half-life is the time needed for the level to fall by half in the phase considered. The low end stands for rapid decline, the high end for slow decline. A word on the Tmax: it is the time from dosing to the highest level. One may read the IC50 as the concentration that inhibits the measured activity by half.

Series [1] concerns the target T1, Bromodomain-containing protein 4 (Homo sapiens, UniProt O60885). The experiment in a line: Inhibition of BRD4 in human TY82 cells assessed as downregulation of c-Myc protein expression at 0.2 to 1 uM after 24 hrs by Western blot method. Type of series: cell-based. On the technique in general: In western blotting, separated proteins are transferred to a membrane and probed.

In series [2] the target is Transcription initiation factor TFIID subunit 1-like (Homo sapiens) (UniProt Q8IZX4). The experiment in a line: Inhibition of human partial length TAF1L bromodomain 2 (Q1523 to D1654 residues) expressed in Escherichia coli BL21 assessed as residual activity at 1 uM after 1 hr by qPCR method relative to control. (In general: Real-time PCR tracks product formation cycle by cycle.)

Series [3] is described as follows: Plasma concentration in ICR (CD-1) mouse at 10 mg/kg, po after 24 hrs. The format is ADME, organism-based.
For series [4], the target named is Bromodomain-containing protein 3 (Homo sapiens) (UniProt Q15059). The series is described as follows: Inhibition of human partial length BRD3 bromodomain 2 (G306 to P416 residues) expressed in Escherichia coli BL21 assessed as residual activity at 1 uM after 1 hr by qPCR method relative to control.
Sequence of Bromodomain-containing protein 3 (Homo sapiens) (Q15059 2-726 limits assumed): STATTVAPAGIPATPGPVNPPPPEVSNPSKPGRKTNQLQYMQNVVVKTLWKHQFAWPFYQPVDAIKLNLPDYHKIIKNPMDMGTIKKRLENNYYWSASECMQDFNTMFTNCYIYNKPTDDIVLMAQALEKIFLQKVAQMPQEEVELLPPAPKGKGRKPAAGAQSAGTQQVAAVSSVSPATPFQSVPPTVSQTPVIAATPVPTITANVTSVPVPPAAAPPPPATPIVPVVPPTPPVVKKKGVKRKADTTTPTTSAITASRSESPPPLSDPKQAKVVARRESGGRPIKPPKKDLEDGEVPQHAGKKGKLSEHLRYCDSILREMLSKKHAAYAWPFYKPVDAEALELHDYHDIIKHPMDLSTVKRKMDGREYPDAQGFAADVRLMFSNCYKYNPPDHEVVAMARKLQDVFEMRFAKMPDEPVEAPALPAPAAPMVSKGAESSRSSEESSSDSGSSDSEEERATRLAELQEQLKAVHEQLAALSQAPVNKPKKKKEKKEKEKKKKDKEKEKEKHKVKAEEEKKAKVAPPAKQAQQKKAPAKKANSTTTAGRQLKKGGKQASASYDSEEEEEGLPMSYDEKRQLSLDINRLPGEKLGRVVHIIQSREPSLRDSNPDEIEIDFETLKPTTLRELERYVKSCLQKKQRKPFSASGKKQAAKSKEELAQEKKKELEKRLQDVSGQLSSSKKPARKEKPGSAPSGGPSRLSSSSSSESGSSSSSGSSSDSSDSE
Series [5] has as its target Chromatin remodeling regulator CECR2 (Homo sapiens) (UniProt Q9BXF3). The experiment in a line: Inhibition of human partial length CECR2 (P423 to D543 residues) expressed in Escherichia coli BL21 assessed as residual activity at 1 uM after 1 hr by qPCR method relative to control.
Series [6] concerns the target Bromodomain-containing protein 9 (Homo sapiens) (UniProt Q9H8M2). The series is described as follows: Inhibition of human partial length BRD9 (R130 to V259 residues) expressed in Escherichia coli BL21 assessed as residual activity at 1 uM after 1 hr by qPCR method relative to control.
For series [7], the target named is Bromodomain-containing protein 1 (Homo sapiens) (UniProt O95696). The series is described as follows: Inhibition of human partial length BRD1 (E556 to A688 residues) expressed in Escherichia coli BL21 assessed as residual activity at 1 uM after 1 hr by qPCR method relative to control.
Series [8] can be described thus: Half life in ICR (CD-1) mouse at 10 mg/kg, po. The format is ADME, organism-based. The settings on record: in vivo.
In series [9] the target is Protein polybromo-1 (Homo sapiens) (UniProt Q86U86). The series is described as follows: Inhibition of human partial length PBRM1 bromodomain 5 (S645 to D766 residues) expressed in Escherichia coli BL21 assessed as residual activity at 1 uM after 1 hr by qPCR method relative to control.
In series [10] the target is Transcription initiation factor TFIID subunit 1 (Homo sapiens) (UniProt P21675). The series is described as follows: Inhibition of human partial length TAF1 bromodomain 2 (D1521 to D1656 residues) expressed in Escherichia coli BL21 assessed as residual activity at 1 uM after 1 hr by qPCR method relative to control.
Sequence of Transcription initiation factor TFIID subunit 1 (Homo sapiens) (P21675 whole entry, the tested form may be a part): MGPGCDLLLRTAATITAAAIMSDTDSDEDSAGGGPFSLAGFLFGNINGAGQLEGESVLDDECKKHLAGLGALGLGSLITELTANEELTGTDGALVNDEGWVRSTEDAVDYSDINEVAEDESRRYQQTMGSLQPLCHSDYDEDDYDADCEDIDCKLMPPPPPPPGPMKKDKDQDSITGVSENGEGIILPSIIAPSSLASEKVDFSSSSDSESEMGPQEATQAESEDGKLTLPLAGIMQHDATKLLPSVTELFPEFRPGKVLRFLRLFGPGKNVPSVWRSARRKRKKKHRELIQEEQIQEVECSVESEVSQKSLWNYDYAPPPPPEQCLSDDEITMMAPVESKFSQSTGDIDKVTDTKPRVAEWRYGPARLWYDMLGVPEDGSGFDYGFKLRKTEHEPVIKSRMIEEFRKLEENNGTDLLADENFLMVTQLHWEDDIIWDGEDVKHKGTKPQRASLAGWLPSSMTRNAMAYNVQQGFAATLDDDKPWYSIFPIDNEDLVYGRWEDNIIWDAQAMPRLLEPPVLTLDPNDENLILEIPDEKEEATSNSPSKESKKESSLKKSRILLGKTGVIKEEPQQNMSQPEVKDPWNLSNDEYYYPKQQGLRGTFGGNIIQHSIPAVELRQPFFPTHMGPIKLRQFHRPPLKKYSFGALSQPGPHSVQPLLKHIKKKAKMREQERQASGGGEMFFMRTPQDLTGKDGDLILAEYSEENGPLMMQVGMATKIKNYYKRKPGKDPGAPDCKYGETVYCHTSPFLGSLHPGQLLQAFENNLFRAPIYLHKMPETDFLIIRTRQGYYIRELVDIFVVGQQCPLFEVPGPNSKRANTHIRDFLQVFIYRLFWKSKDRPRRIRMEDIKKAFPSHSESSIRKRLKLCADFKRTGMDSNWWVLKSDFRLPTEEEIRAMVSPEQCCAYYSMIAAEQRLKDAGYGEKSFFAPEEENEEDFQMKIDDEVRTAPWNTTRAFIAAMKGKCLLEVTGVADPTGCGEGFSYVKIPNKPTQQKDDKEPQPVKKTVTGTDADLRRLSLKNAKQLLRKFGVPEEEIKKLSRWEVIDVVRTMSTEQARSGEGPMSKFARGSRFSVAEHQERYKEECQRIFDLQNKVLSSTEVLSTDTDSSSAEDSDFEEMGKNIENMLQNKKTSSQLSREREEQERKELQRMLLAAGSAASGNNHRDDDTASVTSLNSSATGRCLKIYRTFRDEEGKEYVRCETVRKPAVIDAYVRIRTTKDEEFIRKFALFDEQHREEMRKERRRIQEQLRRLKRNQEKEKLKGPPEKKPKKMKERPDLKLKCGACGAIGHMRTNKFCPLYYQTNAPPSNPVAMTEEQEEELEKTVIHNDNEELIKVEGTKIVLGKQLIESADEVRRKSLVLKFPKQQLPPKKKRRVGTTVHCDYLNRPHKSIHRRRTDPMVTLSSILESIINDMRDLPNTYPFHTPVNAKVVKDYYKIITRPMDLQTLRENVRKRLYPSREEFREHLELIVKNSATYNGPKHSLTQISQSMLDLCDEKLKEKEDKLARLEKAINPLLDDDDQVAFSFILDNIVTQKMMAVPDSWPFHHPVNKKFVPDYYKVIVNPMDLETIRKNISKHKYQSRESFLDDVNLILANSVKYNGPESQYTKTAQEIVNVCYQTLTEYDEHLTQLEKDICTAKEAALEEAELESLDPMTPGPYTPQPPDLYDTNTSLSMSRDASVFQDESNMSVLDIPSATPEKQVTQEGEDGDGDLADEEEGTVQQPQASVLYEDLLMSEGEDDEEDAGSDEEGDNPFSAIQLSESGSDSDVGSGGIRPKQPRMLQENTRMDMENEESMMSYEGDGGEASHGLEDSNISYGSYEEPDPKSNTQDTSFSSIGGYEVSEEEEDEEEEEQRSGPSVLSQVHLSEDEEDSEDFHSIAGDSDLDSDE
The target of series [11] is Bromodomain adjacent to zinc finger domain protein 2A (Homo sapiens) (UniProt Q9UIF9). The experiment in a line: Inhibition of human partial length BAZ2A (M1792 to L1905 residues) expressed in Escherichia coli BL21 assessed as residual activity at 1 uM after 1 hr by qPCR method relative to control.
Sequence of Bromodomain adjacent to zinc finger domain protein 2A (Homo sapiens) (Q9UIF9 whole entry, the tested form may be a part): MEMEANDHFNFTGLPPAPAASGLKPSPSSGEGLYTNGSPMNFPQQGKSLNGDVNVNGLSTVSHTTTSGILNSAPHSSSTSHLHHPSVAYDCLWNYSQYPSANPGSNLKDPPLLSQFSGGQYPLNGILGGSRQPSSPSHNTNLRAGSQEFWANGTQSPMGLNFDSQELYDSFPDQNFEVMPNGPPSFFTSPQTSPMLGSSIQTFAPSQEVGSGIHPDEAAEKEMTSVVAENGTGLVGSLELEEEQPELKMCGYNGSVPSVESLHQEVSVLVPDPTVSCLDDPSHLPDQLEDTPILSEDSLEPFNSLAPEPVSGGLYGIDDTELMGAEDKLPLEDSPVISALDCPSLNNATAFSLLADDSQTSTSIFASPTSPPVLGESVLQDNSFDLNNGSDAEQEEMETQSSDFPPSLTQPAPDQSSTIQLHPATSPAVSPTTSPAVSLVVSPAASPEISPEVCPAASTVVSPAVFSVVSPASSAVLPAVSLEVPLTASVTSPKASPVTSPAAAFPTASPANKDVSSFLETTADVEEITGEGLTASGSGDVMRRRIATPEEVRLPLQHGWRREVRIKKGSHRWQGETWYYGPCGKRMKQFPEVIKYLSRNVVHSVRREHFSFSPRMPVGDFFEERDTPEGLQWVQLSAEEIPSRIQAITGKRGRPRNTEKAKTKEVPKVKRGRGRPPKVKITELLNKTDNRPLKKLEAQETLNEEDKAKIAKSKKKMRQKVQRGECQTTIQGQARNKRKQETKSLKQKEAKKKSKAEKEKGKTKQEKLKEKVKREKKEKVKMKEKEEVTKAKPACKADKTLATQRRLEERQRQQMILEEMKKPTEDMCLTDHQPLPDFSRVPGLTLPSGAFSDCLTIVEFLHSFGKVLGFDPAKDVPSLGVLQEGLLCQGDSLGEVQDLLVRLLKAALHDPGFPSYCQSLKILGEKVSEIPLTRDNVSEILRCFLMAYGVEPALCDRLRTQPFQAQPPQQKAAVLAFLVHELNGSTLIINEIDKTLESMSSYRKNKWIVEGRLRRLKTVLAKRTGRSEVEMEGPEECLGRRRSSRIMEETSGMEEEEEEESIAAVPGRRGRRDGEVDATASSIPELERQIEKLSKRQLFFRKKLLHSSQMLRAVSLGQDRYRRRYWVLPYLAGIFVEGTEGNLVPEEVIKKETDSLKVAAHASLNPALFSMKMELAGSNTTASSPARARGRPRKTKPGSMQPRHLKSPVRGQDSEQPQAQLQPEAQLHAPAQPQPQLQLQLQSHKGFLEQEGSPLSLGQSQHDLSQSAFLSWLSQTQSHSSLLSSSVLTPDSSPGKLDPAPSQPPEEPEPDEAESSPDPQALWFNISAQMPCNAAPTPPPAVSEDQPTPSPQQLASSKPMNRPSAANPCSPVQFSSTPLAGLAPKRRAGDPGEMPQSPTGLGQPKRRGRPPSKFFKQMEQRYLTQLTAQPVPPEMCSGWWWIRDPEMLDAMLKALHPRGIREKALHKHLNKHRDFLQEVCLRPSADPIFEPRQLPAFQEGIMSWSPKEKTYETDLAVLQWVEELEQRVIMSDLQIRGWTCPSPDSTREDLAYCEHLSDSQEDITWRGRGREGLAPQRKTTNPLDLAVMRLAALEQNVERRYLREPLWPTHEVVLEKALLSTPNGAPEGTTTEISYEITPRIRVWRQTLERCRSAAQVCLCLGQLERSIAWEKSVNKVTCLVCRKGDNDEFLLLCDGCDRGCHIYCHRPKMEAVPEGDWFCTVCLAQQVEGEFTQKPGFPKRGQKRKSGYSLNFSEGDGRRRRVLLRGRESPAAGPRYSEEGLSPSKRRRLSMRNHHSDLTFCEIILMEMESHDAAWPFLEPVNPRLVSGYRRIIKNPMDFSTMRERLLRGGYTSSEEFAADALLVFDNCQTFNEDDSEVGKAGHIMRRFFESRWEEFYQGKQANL
Series [12] deals with Bromodomain testis-specific protein (Homo sapiens) (UniProt Q58F21). The series is described as follows: Inhibition of human partial length BRDT bromodomain 1 (N21 to E137 residues) expressed in Escherichia coli BL21 assessed as residual activity at 1 uM after 1 hr by qPCR method relative to control.
Series [13] can be described thus: Tmax in ICR (CD-1) mouse at 10 mg/kg, po. The format is ADME, organism-based. The settings on record: in vivo.
The target in series [14] is SWI/SNF-related matrix-associated actin-dependent regulator of chromatin subfamily A member 2 (Homo sapiens) (UniProt P51531). The experiment in a line: Inhibition of human partial length SMARCA2 (S1377 to Q1486 residues) expressed in Escherichia coli BL21 assessed as residual activity at 1 uM after 1 hr by qPCR method relative to control.
Series [15] deals with Nucleosome-remodeling factor subunit BPTF (Homo sapiens) (UniProt Q12830). The series is described as follows: Inhibition of human partial length FALZ (S2791 to H2911 residues) expressed in Escherichia coli BL21 assessed as residual activity at 1 uM after 1 hr by qPCR method relative to control.
Series [16] concerns the target T1, Bromodomain-containing protein 4. The experiment in a line: Inhibition of JQ1-FITC binding to His6-tagged BRD4-BD1 (unknown origin) expressed in Escherichia coli BL21 (DE3)-codon plus-RIL cells incubated in dark for 4 hrs by fluorescence anisotropy assay.

Sequence of Bromodomain-containing protein 9 (Homo sapiens) (Q9H8M2 whole entry, the tested form may be a part): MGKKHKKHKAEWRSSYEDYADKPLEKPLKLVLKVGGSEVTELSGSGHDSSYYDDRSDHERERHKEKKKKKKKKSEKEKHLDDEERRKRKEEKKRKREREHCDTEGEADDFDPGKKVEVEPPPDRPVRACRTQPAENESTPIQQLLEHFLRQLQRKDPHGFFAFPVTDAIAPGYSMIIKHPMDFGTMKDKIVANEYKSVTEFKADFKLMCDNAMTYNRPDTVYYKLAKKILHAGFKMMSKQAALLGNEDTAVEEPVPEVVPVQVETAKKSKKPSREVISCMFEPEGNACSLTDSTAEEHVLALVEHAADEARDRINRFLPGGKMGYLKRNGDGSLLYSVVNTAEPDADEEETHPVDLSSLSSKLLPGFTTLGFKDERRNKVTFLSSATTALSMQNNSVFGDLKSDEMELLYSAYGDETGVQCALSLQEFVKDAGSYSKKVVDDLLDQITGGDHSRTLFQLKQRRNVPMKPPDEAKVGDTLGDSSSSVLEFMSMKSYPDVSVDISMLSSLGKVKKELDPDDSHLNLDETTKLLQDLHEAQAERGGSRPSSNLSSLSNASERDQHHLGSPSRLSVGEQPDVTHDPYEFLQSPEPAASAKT

Take `Cc1ccc([C@H](C)Nc2ccc3c(c2)N(C2CC2)[C@H](C)C(=O)N3C)c(C)c1`: in [1], the inhibition entry was “Active”. The Activity in series [2] amounted to 88%; in series [4], 0.3%; in series [5], 83%; in series [6], 77%; in series [7], 57%; in series [9], 94%. Moreover, the Activity in series [10] stood at 85%; in [11] it was 83%; in [12], 3.1%; in series [14], 73%; in [15], 96%. For the same compound, in [3], the concentration at 24 h is < 0.3 ng/mL. In [8], this compound gave a half-life of 2.23 h. For the same compound, in series [13], the Tmax came to 0.33 h. Also, in series [16], the IC50 was 0.045 µM.

The values are drawn from ChEMBL document CHEMBL4130345, “Discovery of a series of dihydroquinoxalin-2(1H)-ones as selective BET inhibitors from a dual PLK1-BRD4 inhibitor” (Eur J Med Chem, 2017).
